In patent US9067937B2 (priority 2012, dated 2015):
Where a name gives a salt, the structure may show the parent alone.

What was measured:
[1] = tested on: A549 cells; assay: Cell-based assay, anti-proliferative activity (Cell Counting Kit-8, 72 hours); parameters: species or system human; details: Homo sapiens, A549, 72 h, read-out: IC50 (μM) (A549)
Method in brief: (§1)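 Cells seeded at 2,000–3,000 cells/well and exposed to candidate MELK inhibitors for 72 hours; growth measured with Cell Counting Kit-8. IC50 values calculated from the growth read-out.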

[2] = tested on: 22Rv1 cells; assay: as above; parameters: species or system human; details: Homo sapiens, 22Rv1, 72 h, read-out: IC50 (μM) (22Rvl)
Method in brief: as §1

[3] = tested on: T47D cells; assay: as above; parameters: species or system human; details: Homo sapiens, T47D, 72 h, read-out: IC50 (μM) (T47D)
Method in brief: as §1

[4] = tested on: DU4475 cells; assay: as above; parameters: species or system human; details: Homo sapiens, DU-4475, 72 h, read-out: IC50 (μM) (DU4475)
Method in brief: as §1

[5] = target: MELK (Homo sapiens, UniProt Q14680); assay: Kinase assay (IMAP fluorescence polarization, FITC-labeled histone H3 peptide); format: biochemical; details: 50 micro-M ATP
Method in brief: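 Kinase (0.8 ng/μL) reacted with 100 nM FITC-histone H3 peptide and 50 μM ATP in 20 mM HEPES, 0.3 mM MgCl2, 2 mM DTT, 0.01% Tween-20, pH 7.4, for 1 hour at room temperature. Phosphorylation read by IMAP fluorescence polarization after adding binding solution; IC50 from four-parameter fit.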

[6] = tested on: HT1197 cells; assay: Cell-based assay, anti-proliferative activity, MELK-negative control (Cell Counting Kit-8, 72 hours); parameters: species or system human; details: Homo sapiens, HT1197, 72 h, read-out: IC50 (μM) (HTll97)
Method: 100 micro-L of cell suspension was seeded onto 96-well microtiter plate (ViewPlate-96FTC, PerkinElmer). The initial cell concentration of 22Rv1, T47D, A549, DU4475, and HT1197 were 3,000 cells/well, 2,000 cells/well and 2,500 cells/well, respectively. Cellular growth was determined using Cell Counting Kit-8 (DOJINDO) at 72 hours after the exposure of the candidate inhibitors. […] Accurate IC50 values were calculated as described previously.

Sequence of MELK (Q14680 whole entry, looked up): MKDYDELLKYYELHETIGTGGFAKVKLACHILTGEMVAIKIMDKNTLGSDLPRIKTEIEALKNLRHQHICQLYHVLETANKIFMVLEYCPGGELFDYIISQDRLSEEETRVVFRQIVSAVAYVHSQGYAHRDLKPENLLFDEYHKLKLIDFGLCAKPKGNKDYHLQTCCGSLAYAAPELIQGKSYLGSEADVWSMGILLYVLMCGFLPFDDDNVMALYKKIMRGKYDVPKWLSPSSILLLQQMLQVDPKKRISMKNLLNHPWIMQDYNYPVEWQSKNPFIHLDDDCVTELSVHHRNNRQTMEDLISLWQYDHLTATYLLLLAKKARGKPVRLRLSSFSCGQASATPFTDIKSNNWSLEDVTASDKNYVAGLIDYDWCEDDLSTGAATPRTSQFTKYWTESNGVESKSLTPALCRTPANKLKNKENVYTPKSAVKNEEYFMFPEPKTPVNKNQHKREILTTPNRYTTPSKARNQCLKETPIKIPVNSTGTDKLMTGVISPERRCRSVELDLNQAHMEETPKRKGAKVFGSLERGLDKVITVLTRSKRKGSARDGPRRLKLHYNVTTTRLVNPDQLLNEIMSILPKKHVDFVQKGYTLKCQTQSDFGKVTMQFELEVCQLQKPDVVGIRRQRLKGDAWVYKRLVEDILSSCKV

SMILES	IC50 [1]	IC50 [2]	IC50 [3]	IC50 [4]	IC50 [5]	IC50 [6]
CC(=O)c1cnc2ccc(-c3cc(F)c(O)c(Cl)c3)nc2c1N[C@H]1CC[C@H](CCN(C)C)CC1 [Example 10, 1-(6-(3-Chloro-5-fluoro-4-hydroxyphenyl)-4-{trans-4-[2-(dimethylamino)ethyl]-cyclohexylamino}-1,5-naphthyridin-3-yl)ethanone dihydrochloride]	0.012 µM	0.01 µM	0.0039 µM	0.0049 µM	0.0014 µM	0.2 µM
CC(=O)c1cnc2ccc(-c3cc(F)c(O)c(Cl)c3)nc2c1N[C@H]1CC[C@H](NC(=O)C(C)N)CC1 (stereo partly drawn) [Example 74, N-{4-[3-Acetyl-6-(3-chloro-5-fluoro-4-hydroxyphenyl)-1,5-naphthyridin-trans-4-ylamino]-cyclohexyl}-2-aminopropanamide dihydrochloride]	0.13 µM	0.025 µM	0.0043 µM	0.0036 µM	0.0026 µM	100 µM
CN(C)[C@H]1CC[C@H](Nc2c(C(=O)C3CC3)cnc3ccc(-c4cc(Cl)c(O)c(Cl)c4)nc23)CC1 [Example 80, Cyclopropyl {6-(3,5-dichloro-4-hydroxyphenyl)-4-[trans-4-(dimethylamino)-cyclohexylamino]-1,5-naphthyridin-3-yl}methanone dihydrochloride]	0.0076 µM	0.0052 µM	0.0041 µM	0.002 µM	0.0006 µM	0.084 µM
CC(=O)c1cnc2ccc(Cl)nc2c1N[C@H]1CC[C@H](CN(C)C)CC1 [Example 1, 1-(6-Chloro-4-{trans-4-[(dimethylamino)methyl]cyclohexylamino}-1,5-naphthyridin-3-yl)-ethanone]	2.7 µM	5 µM	5.3 µM	2.5 µM	0.31 µM	10 µM
CC(=O)c1cnc2ccc(-c3cc(F)c(O)c(Cl)c3)nc2c1N[C@H]1CC[C@H](CN2CCN(C)CC2)CC1 [Example 68, 1-(6-(3-Chloro-5-fluoro-4-hydroxyphenyl)-4-{trans-4-[4-methylpiperazin-1-yl)methyl]-cyclohexylamino}-1,5-naphthyridin-3-yl)ethanone trihydrochloride]	0.026 µM	0.039 µM	0.012 µM	0.012 µM	0.0026 µM	0.11 µM
N[C@H]1CCCN(c2ccc(Nc3c(C(=O)C4CC4)cnc4ccc(-c5cc(F)c(O)c(Cl)c5)nc34)cn2)C1 [Example 83, (S)-{4-[6-(3-Aminopiperidin-1-yl)pyridin-3-ylamino]-6-(3-chloro-5-fluoro-4-hydroxyphenyl)-1,5-naphthyridin-3-yl}(cyclopropyl)methanone]	0.09 µM	0.025 µM	0.012 µM	0.015 µM	0.001 µM	2.7 µM
CC(=O)c1cnc2ccc(-c3ccncc3)nc2c1N[C@H]1CC[C@H](CN(C)C)CC1 [Example 56, 1-{4-[4-(trans-4-Dimethylamino)methylcyclohexylamino]-6-(pyridin-4-yl)-1,5-naphthyridin-3-yl}ethanone trihydrochloride]	0.52 µM	0.86 µM	0.38 µM	0.46 µM	0.016 µM	1.7 µM
CC(=O)c1cnc2ccc(-c3cc(Cl)c(O)c(Cl)c3)nc2c1N[C@H]1CC[C@H](CN2CCNCC2)CC1 [Example 70, 1-{6-(3,5-Dichloro-4-hydroxyphenyl)-4-[trans-4-(piperazin-1-ylmethyl)cyclohexylamino]-1,5-naphthyridin-3-yl}ethanone trihydrochloride]	0.084 µM	0.031 µM	0.021 µM	0.011 µM	0.0006 µM	3.9 µM
CC(=O)c1cnc2ccc(-c3cc(Cl)c(O)c(Cl)c3)nc2c1NCC1CCN(C)CC1 [Example 27, 1-(6-(3,5-Dichloro-4-hydroxyphenyl)-4-((1-methylpiperidin-4-yl)methylamino)-1,5-naphthyridin-3-yl)ethanone dihydrochloride]	0.11 µM	0.1 µM	0.079 µM	0.1 µM	0.0007 µM	2 µM
CC(=O)c1cnc2ccc(-c3ccc(O)nc3)nc2c1N[C@H]1CC[C@H](CN(C)C)CC1 [Example 86, 1-(4-{trans-4-[(Dimethylamino)methyl]cyclohexylamino}-6-(6-hydroxypyridin-3-yl)-1,5-naphthyridin-3-yl)ethanone dihydrochloride]	8 µM	5.3 µM	6.2 µM	6.5 µM	0.011 µM	10 µM
CN(C)C[C@H]1CC[C@H](Nc2c(C(=O)C3CCC3)cnc3ccc(-c4cc(F)c(O)c(Cl)c4)nc23)CC1 [Example 212, (6-(3-chloro-5-fluoro-4-hydroxyphenyl)-4-((4-((dimethylamino)methyl)cyclohexyl)amino)-1,5-naphthyridin-3-yl)(cyclobutyl)methanone dihydrochloride]	0.014 µM	0.013 µM	0.0074 µM	0.003 µM	0.0016 µM	0.014 µM
CN(C)[C@H]1CC[C@H](Nc2c(C(=O)CO)cnc3ccc(-c4cc(Cl)c(O)c(Cl)c4)nc23)CC1 [Example 203, 1[6-(3,5-dichloro-4-hydroxyphenyl)-4-{[trans-4-(dimethylamino)cyclohexyl]amino}-1,5-naphthyridin-3-yl)-2-hydroxyethanone dihydrochloride]	0.034 µM	0.017 µM	0.0093 µM	0.013 µM	0.0015 µM	1.2 µM
CCC(=O)c1cnc2ccc(-c3cc(Cl)c(O)c(Cl)c3)nc2c1N[C@H]1CC[C@H](CN(C)C)CC1 [Example 206, 1-[6-(3,5-dichloro-4-hydroxyphenyl)-4-({trans-4-[(dimethylamino)methyl]cyclohexyl}amino)-1,5-naphthyridin-3-yl)]propan-1-one dihydrochloride]	0.061 µM	0.022 µM	0.01 µM	0.023 µM	0.0013 µM	10 µM
CC(=O)c1cnc2ccc(-c3cc(Cl)c(O)c(Cl)c3)nc2c1N[C@H]1CC[C@H](N(C)C)CC1 [Example 2, 1-{6-(3,5-Dichloro-4-hydroxyphenyl)-4-[trans-4-(dimethylamino)cyclohexylamino]-1,5-naphthyridin-3-yl}ethanone dihydrochloride]	0.004 µM	0.0032 µM	0.0018 µM	0.0015 µM	0.0003 µM	0.19 µM
CN(C)C[C@H]1CC[C@H](Nc2c(C(=O)CO)cnc3ccc(-c4cc(Cl)c(O)c(Cl)c4)nc23)CC1 [Example 44, 1-[6-(3,5-Dichloro-4-hydroxyphenyl)-4-{trans-4-[(dimethylamino)methyl]cyclohexyl-amino}-1,5-naphthyridin-3-yl]-2-hydroxyethanone dihydrochloride]	0.0067 µM	0.006 µM	0.0029 µM	0.0017 µM	0.0003 µM	0.2 µM
